Earlier results, collected in patent publication US8969412B2, “Use for a composition comprising chloroprocaine HCL, a new composition comprising chloroprocaine HCL and a method for its manufacture” (Sintetica S.A., priority 2005, dated 2015).

Tests used:
[1] = in vivo
[2] = intrathecal application
[3] = intrathecal anaesthesia

CCN(CC)CCOC(=O)c1ccc(N)cc1Cl [Chloroprocaine, 2-(diethylaminoethyl)-4-amino-chlorobenzoate]
systemic toxicity [1]: very low systemic toxicity

CCN(CC)CC(=O)Nc1c(C)cccc1C [lidocaine]
transient neurologic syndrome (TNS) [2]: associated with symptoms of so-called transient neurologic syndrome (TNS)

CCN(CC)CCOC(=O)c1ccc(N)cc1 [procaine]
inadequacy rate [3]: 17%
